Data: article PMC4335978, “Regulation of nitrite resistance of the cytochrome cbb3 oxidase by cytochrome c ScyA in Shewanella oneidensis” (MicrobiologyOpen, 2014)

Key:
[1] = molecular target: T1, cbb3-HCO (cytochrome cbb3 oxidase) (Shewanella oneidensis, UniProt Q8EEL5); test: oxygen consumption (O2 electrode), membranes of Δcyd strain; assay type: biochemical; settings: ~70 μmol/L O2; ascorbate + TMPD as electron donor; no added ScyA
T1 construct: gene ccoN; native ccoNOQP complex in membrane preparations of S. oneidensis Δcyd strain (bd oxidase absent), not purified, no tag; with Cbb3-type cytochrome c oxidase subunit II CcoO; Cbb3-type cytochrome c oxidase subunit III CcoP; Cbb3-type cytochrome c oxidase subunit IV CcoQ

[2] = molecular target: T2, bd oxidase (cytochrome bd) (Shewanella oneidensis, UniProt Q8EC58); test: oxygen consumption (O2 electrode), membranes of Δcco strain; assay type: biochemical; settings: ~70 μmol/L O2; ubiquinol-1 as electron donor; no added ScyA
T2 construct: gene cydA; native cydABX complex in membrane preparations of S. oneidensis Δcco strain (cbb3 oxidase absent), not purified, no tag; with Cytochrome bd ubiquinol oxidase subunit II CydB; Cytochrome bd oxidase small subunit CydX
T2 sequence (Q8EC58 1-518): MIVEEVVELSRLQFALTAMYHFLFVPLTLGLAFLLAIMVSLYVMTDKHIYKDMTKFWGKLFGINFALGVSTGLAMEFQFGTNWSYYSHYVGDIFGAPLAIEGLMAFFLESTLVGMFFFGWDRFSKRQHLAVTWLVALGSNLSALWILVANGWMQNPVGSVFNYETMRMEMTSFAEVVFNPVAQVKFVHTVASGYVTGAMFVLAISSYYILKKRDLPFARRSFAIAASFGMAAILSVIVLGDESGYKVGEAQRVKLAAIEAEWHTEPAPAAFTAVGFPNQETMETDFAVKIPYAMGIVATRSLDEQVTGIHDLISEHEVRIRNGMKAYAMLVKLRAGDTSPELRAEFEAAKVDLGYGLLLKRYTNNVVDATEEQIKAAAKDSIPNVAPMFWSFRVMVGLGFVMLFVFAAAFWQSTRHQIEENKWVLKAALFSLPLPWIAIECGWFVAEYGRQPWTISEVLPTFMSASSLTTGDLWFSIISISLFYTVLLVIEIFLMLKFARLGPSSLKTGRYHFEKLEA
T2 sequence (Q8EC59 1-379 partner): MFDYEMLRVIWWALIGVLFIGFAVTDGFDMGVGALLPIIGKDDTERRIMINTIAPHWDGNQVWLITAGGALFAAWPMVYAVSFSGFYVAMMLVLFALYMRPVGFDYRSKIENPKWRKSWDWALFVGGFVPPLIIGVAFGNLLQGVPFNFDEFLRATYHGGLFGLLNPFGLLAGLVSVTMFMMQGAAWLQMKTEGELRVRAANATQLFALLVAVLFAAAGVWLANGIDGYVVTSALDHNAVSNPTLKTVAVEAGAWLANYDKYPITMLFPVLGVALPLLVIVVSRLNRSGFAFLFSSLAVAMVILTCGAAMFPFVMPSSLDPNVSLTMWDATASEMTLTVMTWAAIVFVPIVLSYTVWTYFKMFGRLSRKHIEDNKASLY
T2 sequence (Q8EC60 1-38 partner): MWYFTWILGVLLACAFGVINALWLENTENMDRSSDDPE

T1 sequence (Q8EEL5 1-478): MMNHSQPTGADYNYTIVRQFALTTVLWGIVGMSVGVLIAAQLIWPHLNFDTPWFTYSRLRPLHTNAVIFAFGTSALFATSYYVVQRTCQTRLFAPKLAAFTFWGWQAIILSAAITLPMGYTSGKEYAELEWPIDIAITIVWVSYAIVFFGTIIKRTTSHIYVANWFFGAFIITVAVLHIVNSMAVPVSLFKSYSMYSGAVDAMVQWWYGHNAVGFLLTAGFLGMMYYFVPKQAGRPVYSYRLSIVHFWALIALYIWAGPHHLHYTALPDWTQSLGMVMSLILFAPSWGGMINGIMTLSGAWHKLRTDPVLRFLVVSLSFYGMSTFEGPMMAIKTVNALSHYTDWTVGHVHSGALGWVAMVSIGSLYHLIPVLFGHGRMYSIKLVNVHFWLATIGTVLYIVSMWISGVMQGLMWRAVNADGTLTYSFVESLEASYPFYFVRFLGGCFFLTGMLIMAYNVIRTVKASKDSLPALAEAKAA
T1 sequence (Q8EEL6 1-208 partner): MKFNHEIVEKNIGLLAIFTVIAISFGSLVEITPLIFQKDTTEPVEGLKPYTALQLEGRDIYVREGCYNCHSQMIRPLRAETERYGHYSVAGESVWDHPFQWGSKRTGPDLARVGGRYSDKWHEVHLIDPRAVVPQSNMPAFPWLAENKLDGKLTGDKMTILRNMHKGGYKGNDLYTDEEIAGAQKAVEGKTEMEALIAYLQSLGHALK
T1 sequence (Q8EEL8 1-322 partner): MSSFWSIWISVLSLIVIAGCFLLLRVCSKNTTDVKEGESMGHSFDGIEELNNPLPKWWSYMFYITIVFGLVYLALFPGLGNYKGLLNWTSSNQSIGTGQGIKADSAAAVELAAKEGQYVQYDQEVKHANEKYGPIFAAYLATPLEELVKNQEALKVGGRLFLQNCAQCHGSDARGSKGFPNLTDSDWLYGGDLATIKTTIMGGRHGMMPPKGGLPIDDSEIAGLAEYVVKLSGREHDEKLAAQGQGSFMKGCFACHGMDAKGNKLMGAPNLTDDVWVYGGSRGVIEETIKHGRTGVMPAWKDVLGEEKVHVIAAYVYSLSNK
T1 sequence (Q8EEL7 1-58 partner): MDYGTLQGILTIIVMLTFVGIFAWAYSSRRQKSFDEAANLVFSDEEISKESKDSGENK

In the case of `O=NO` [nitrite], the IC50 [1] is reported as roughly 50 nM and the IC50 [2] is reported as roughly 180 nM.
